# Tested on: Panc-1 cells
# Experiment: Detachment assay, Panc-1
# Format: cell-based, human
# Settings: for detachment: 48 hours
# Procedure: Cell Viability Assay—The Cells were treated with peptides for 24 hours at different peptide concentrations. The 3-(4,5-dimethylthiazol-2-yl)-5-(3-carboxymethoxyphenyl)-2-(4-sulfophenyl)-2H-tetrazolium compound from Promega Viability kit (Madison, Ill.) was added, and the cells were incubated at 37° C. for 1-2 hours. The optical density on 96-plate was analyzed with a microplate reader at 490 nm to determine cell viability. In addition, cells were stained with trypan blue after 24 hours of treatment with Y15 and the percent of cells that stained positive were determined with a hemacytometer. Cell adhesion assay—The poly-L-Lysine or Collagen (5 μg/ml) coated 96-well plates were blocked with the blocking buffer (medium with 0.5% BSA) for 1 hour at 37 C. The cells were pre-treated with drugs for 3 hours and plated for adhesion at 4×10^5 cells. Cells were incubated at 37 C for 1 hour, fixed in 3.7% formaldehyde, washed in 0.1% BSA in PBS and stained with crystal violet (5 mg/ml in 2% ethanol) for 10 minutes. Then 2% SDS was added to the dried plated and OD at 590 nm was measured for detecting cell adhesion. […] Protein concentrations were determined using a Bio-Rad Kit. The boiled samples were loaded on Ready SDS-10% PAGE gels (Bio Rad, Inc) and used for Western blot analysis with the protein-specific antibody. […] We calculated the percent of detachment by dividing the number of detached cells by the total number of cells. The percent of detached cells was calculated in three independent experiments. […] The percent of apoptotic cells was calculated as a ratio of apoptotic detached cells divided by the total number of cells in three independent experiments in several fields with the fluorescent microscope. For each experiment 300 cells per treatment were counted. […]
smiles,measurement,setting,value
"Cl.Cl.Cl.Cl.Nc1cc(N)c(N)cc1N [Y15, 1,2,4,5-benzenetetraamine tetrahydrochloride]",detachment compared with TAE226,,more detachment than TAE226
same,detachment,10 μM,13%
same,detachment,50 μM,32%
